Test results reported in patent publication US20260144783A1, “COMPOSITION FOR PREVENTING OR TREATING PERIPHERAL NEUROPATHY, CONTAINING ISOQUINOLINE DERIVATIVE AS ACTIVE INGREDIENT” (ALTMEDICAL CO., LTD., priority 2022, published 2026).
Like-named read-outs stand apart in the source and are kept apart here.

What was measured:
[1] = tested on: mitochondrial membrane potential; assay: TMRM assay; format: cell-based; details: CD1-012 10 μM or 15 μM, CCCP 10 μM, 24 hours
Protocol: (§1) It was confirmed whether the isoquinoline derivative according to the present invention induces mitochondrial dysfunction, similar to CCCP. To this end, the CD1-012 (10 μM or 15 μM) and CCCP (10 μM) were treated for 24 hours, and the mitochondrial membrane potential and mitochondrial reactive oxygen species (ROS) levels in each sample were analyzed. Mitochondrial membrane potential was analyzed using the TMRM (tetramethylrhodamine methyl ester) assay, and mitochondrial ROS levels were analyzed using the MitoSOX assay.

[2] = tested on: BEAS-2B cell line, in which PINK1 was knocked down (shPINK1); assay: mitophagy activity in PINK1 knockdown cell line (FACS); format: cell-based, human; details: CCCP 10 μM or CD1-012 15 μM, 18 hours
Protocol: In this example, it was confirmed whether the mitophagy activation function of the isoquinoline derivative according to the present invention is dependent on the PINK1-Parkin pathway. To this end, after a BEAS-2B cell line, in which PINK1 was knocked down using short hairpin RNA (shRNA), was treated with CCCP (10 μM) of Comparative Example 1 or CD1-012 (15 μM) for 18 hours, the mitophagy activity of each sample was analyzed using flow cytometry (FACS).

[3] = tested on: mitochondrial reactive oxygen species (ROS); assay: MitoSOX assay; format: cell-based; details: CD1-012 10 μM or 15 μM, CCCP 10 μM, 24 hours
Protocol: as §1

[4] = tested on: BEAS-2B cell line; assay: autophagy activity, Keima fluorescent protein, confocal microscope; format: cell-based, human; details: 15 μM 18 h, BEAS-2B expressing Keima, FIG. 4B
Protocol: (§2) It was confirmed whether CD1-012 synthesized in Example 1 specifically increases only mitophagy activity. To this end, the BEAS-2B cell line expressing mt-Keima was treated with CD1-012 (15 μM) or Comparative Example 1 (CCCP, 10 μM) for 18 hours, and mitophagy activity was analyzed using a confocal microscope. Additionally, to measure autophagy activity, the BEAS-2B cell line expressing Keima fluorescent protein was incubated in Hanks' balanced salt solution (HBSS) for 3 hours to induce a starvation condition (starv.), and the results were compared with samples treated with CD1-012 (15 μM) for 18 hours using a confocal microscope.

[5] = tested on: C4da sensory neurons (ppk1a>CD4-tdTom Drosophila); assay: morphology of dendritic branches of C4da sensory neurons; format: in vivo
Source text: To analyze the morphological changes in the dendritic branches of C4da sensory neurons, transgenic Drosophila expressing the fluorescent protein CD4-tdTomato specifically in C4da neurons (ppk^1a>CD4-tdTom) was generated. After treatment of the transgenic flies with paclitaxel and CD1-012, morphological changes in the dendritic branches of C4da sensory neurons were examined. As a result, treatment with paclitaxel increased the total dendrite length and the number of dendritic branches by 22% and 33%, respectively, confirming that morphological changes in the sensory neurons were induced.

[6] = tested on: third-instar larvae of Drosophila (w1118); format: in vivo; details: for withdrawal latency: heat probe 40° C.
Protocol: To this end, thermal sensitivity was measured in a Drosophila model of paclitaxel-induced peripheral neuropathy. […] As a result, after treatment with paclitaxel, hyperalgesia was observed, as indicated by a 35% reduction in withdrawal latency from 6.9 seconds to 4.5 seconds (FIG. 8A). Subsequently, to confirm the therapeutic effect of CD1-012 on peripheral neuropathy, Drosophila were treated with CD1-012 at a concentration of 1 mM along with paclitaxel (20 μM).
(§3) Subsequently, to understand the molecular mechanism underlying the therapeutic effect of CD1-012 on chemotherapy-induced peripheral neuropathy, the therapeutic effect of CD1-012 was examined after suppressing the expression of ULK1 or Rap9, which are essential genes in the recently identified alternative mitophagy pathway. To this end, a heat probe assay was performed using a 40° C. thermal probe after co-treating paclitaxel (20 μM) and CD1-012 (1 mM) in Drosophila expressing shULK1 or shRap9 in C4da sensory neurons, as well as in control Drosophila (wild-type). As a result, in the control group, the peripheral neuropathy symptoms (reduction in withdrawal latency) induced by paclitaxel were recovered by CD1-012 treatment.

[7] = tested on: HeLa-Parkin cell line; assay: mitophagy activity, flow cytometry (FACS); format: cell-based
Protocol: (§4) It was confirmed whether CD1-012 synthesized in Example 1 increases mitophagy activity in various cell lines. To this end, CD1-012 and Comparative Example 1 (CCCP) were treated in the SH-SY5Y cell line, a human neuroblastoma cell line expressing mt-Keima fluorescent protein, and in the HeLa-Parkin cell line, a HeLa cervical cancer cell line expressing Parkin (E3 ligase). Following this treatment, the mitophagy activity of each sample was analyzed using flow cytometry (FACS), and the results are shown in FIGS. 2A to 2B.

[8] = tested on: Drosophila expressing shATG7 in C4da sensory neurons; assay: heat probe assay, ATG7 suppressed; format: in vivo; details: ATG7 expression suppressed; paclitaxel 20 μM and CD1-012 1 mM, 40° C. probe
Protocol: (§5) In this example, an experiment was conducted to verify the therapeutic mechanism of the compound according to the present invention on peripheral neuropathy, particularly chemotherapy-induced peripheral neuropathy. To this end, the therapeutic effect of CD1-012 on peripheral neuropathy was evaluated using animal models in which the expression of ATG5 or ATG7, essential genes in the canonical mitophagy pathway, the most representative mitophagy regulatory pathway, was suppressed. Specifically, paclitaxel (20 μM) and CD1-012 (1 mM) were co-administered to Drosophila expressing shATG7 or shATG5 in C4da sensory neurons, as well as to control flies (wild-type), and a heat probe assay was conducted using a 40° C. thermal probe.

[9] = tested on: SH-SY5Y cell line; assay: mitophagy activity, mt-Keima, flow cytometry (FACS); format: cell-based, human; details: SH-SY5Y expressing mt-Keima
Protocol: as §4

[10] = tested on: chemotherapy-induced peripheral neuropathy mouse model; assay: vonfrey hair test, peripheral neuropathy mouse model; format: in vivo; details: mice
Protocol: To more clearly verify the therapeutic effect of the isoquinoline derivative of the present invention on peripheral neuropathy, particularly chemotherapy-induced peripheral neuropathy, experiments were conducted using a peripheral neuropathy mouse model. Specifically, peripheral neuropathy was induced in mice by administration of a chemotherapeutic agent (paclitaxel), and CD1-012 was co-administered at a dose of 10 mg/kg or 20 mg/kg. Sensitivity to pain was then analyzed using the vonfrey hair test.

[11] = tested on: Drosophila expressing shULK1 in C4da sensory neurons; assay: heat probe assay, ULK1 suppressed; format: in vivo; details: ULK1 expression suppressed; paclitaxel 20 μM and CD1-012 1 mM
Protocol: as §3

[12] = tested on: Drosophila expressing shRap9 in C4da sensory neurons; assay: heat probe assay, Rap9 suppressed; format: in vivo; details: Rap9 expression suppressed; paclitaxel 20 μM and CD1-012 1 mM
Protocol: as §3

[13] = tested on: Drosophila larvae; assay: larval size after treatment; format: in vivo
Protocol: In addition, to evaluate whether the compound according to the present invention affects the growth of Drosophila, the size of larvae was measured after treatment with paclitaxel and CD1-012.

[14] = tested on: BEAS-2B cell line; assay: mitophagy activity, mt-Keima fluorescent protein (FACS, confocal microscope, mito-YFP); format: cell-based, human
Protocol: To analyze the mitophagy-promoting activity effect of the CD1-012 synthesized in the Example 1, the BEAS-2B cell line, which is a human normal lung cell line, was induced to express the mt-Keima fluorescent protein. Following this, the CD1-012 (15 μM) and the compound of Comparative Example 1, CCCP (10 μM), were treated for 24 hours. After the treatment, the mitophagy activity of each sample was measured, and the results were represented in FIGS. 1A to IC.
Specifically, FIG. 1A represents the analysis results using flow cytometry (FACS) (treatment of CD1-012 at 15 µM for 24 hours), FIG. 1B represents the analysis results using a confocal microscope (treatment of CD1-012 at 15 μM for 18 hours), and FIG. 1C represents the measurement results of the quantitative changes in the mitochondria using a fluorescent protein, mito-YFP, which includes a targeting sequence to transport protein to the mitochondria (treatment of CD1-012 at 20 μM for 24 hours).
It was confirmed whether CD1-012 synthesized in Example 1 promotes mitophagy activity in a concentration- and time-dependent manner. To this end, the CD1-012 was treated at various concentrations or at a fixed concentration (15 μM) for different treatment durations in the BEAS-2B cell line expressing mt-Keima, and mitophagy activity was measured using a flow cytometer.
as §2
To this end, the human normal lung cell line BEAS-2B, expressing mt-Keima fluorescent protein, was treated with CD1-012, Comparative Example 2 (palmatine), or Comparative Example 3 (berberine) at various concentrations, and the mitophagy-inducing activity of each sample was compared.

[15] = tested on: Drosophila expressing shATG5 in C4da sensory neurons; assay: heat probe assay, ATG5 suppressed; format: in vivo; details: ATG5 expression suppressed; paclitaxel 20 μM and CD1-012 1 mM, 40° C. probe
Protocol: as §5

[16] = tested on: chemotherapy-induced peripheral neuropathy mouse model; assay: nerve distribution in the footpad (IENFs), peripheral neuropathy mouse model; format: in vivo
[17] = CD1-012 co-administered with paclitaxel
[18] = 15 μM, BEAS-2B mt-Keima, FIG. 3B
[19] = paclitaxel treatment, C4da sensory neurons

For `N#CC(C#N)=NNc1cccc(Cl)c1` [CCCP, Carbonyl cyanide 3-chlorophenylhydrazone, reference compound], the mitochondrial membrane potential [1] was “significantly reduced”, the “mitophagy activation in PINK1 knockdown cell line (shPINK1) compared to control” value [2] was “significantly decreased” and the “mitochondrial ROS levels” value [3] was “significantly increased”.

`Oc1cc2c(cc1O)-c1cc3ccc(O)c(O)c3c[n+]1CC2` [CD1-012, 2,3,9,10-tetrahydroxy-5,6-dihydroisoquinolino[3,2-a]isoquinolin-7-ium bromide] was tested, and the “autophagy activity compared to the untreated control group” value [4] was “no significant difference”, the “paclitaxel-induced increase in dendrite length” value [5, 17] was “significantly suppressed” and the “paclitaxel-induced increase in number of branches” value [5, 17] was “significantly suppressed”. The “withdrawal latency as percent of the wild-type level” value ([6]; CD1-012 1 mM along with paclitaxel 20 μM) was 91%, the withdrawal latency ([6]; CD1-012 1 mM along with paclitaxel 20 μM, paclitaxel alone 4.5 seconds) was 6.3 s and the “peripheral neuropathy symptoms (reduction in withdrawal latency) induced by paclitaxel” value ([6]; control Drosophila (wild-type), paclitaxel 20 μM and CD1-012 1 mM, 40° C. probe) was “recovered”. For the same compound, the “mitophagy activity compared to the control group (Con)” value [7] was “significantly increased”, the “therapeutic effect on chemotherapy-induced peripheral neuropathy (withdrawal latency)” value [8] was “similarly observed” and the “mitophagy activity compared to the control group (Con)” value [9] was “significantly increased”. The “hyperalgesic symptoms (sensitivity to pain)” value ([10]; CD1-012 10 mg/kg or 20 mg/kg co-administered with paclitaxel, FIG. 12A) was “significant improvement”, the “therapeutic effect on paclitaxel-induced peripheral neuropathy (withdrawal latency)” value [11] was “completely abolished” and the “therapeutic effect on paclitaxel-induced peripheral neuropathy (withdrawal latency)” value [12] was “completely abolished”. For the same compound, the “reduction in larval size compared to the untreated control group” value ([13]; in vivo) was roughly 10%, the “mitophagy activity compared with CCCP-treated sample (FIG. 1A, FACS)” value ([14]; 15 μM 24 h, CCCP 10 μM) was “increased as significantly as” and the “treatment time after which mitophagy activity began to significantly increase” value [14, 18] was 3 h. For the same compound, the “treatment time at which mitophagy activity reached its maximum level” value [14, 18] was 18 h, the “concentration at which mitophagy activity reached its maximum (comparable level)” value (shortened to “concentration … (comparable level)”) ([14]; BEAS-2B mt-Keima, FIG. 5) was 10 µM and the “mitophagy-inducing activity relative to berberine” value ([14]; BEAS-2B mt-Keima, FIG. 5) was “approximately 8 times”. The “mitophagy-inducing activity relative to palmatine” value ([14]; BEAS-2B mt-Keima, FIG. 5) was “approximately 40 times”, the “concentration at which mitophagy activity began to significantly increase compared to untreated control” value ([14]; BEAS-2B mt-Keima, flow cytometer, FIG. 3A) was no less than 7.5 µM and the “mitophagy activity compared to the untreated control group (Con)” value ([14]; BEAS-2B mt-Keima, CD1-012 15 μM 24 h FACS, 15 μM 18 h confocal, 20 μM 24 h mito-YFP) was “significant increase”. The “mitophagy activity, concentration dependence” value ([14]; up to the maximum treatment concentration of 17.5 μM, FIG. 3A) was “continued to increase in a concentration-dependent manner”, the “therapeutic effect on chemotherapy-induced peripheral neuropathy (withdrawal latency)” value [15] was “similarly observed” and the “number of peripheral nerves (intraepidermal nerve fibers: IENFs) in the footpad” value ([16]; mice treated with CD1-012 and paclitaxel, FIG. 12B) was “recovery to normal levels”. The mitochondrial membrane potential [1] was “no decrease”, the “mitophagy activation in PINK1 knockdown cell line (shPINK1) compared to control” value [2] was “did not show a significant difference” and the “mitochondrial ROS levels” value [3] was “no increase”.

In the case of `COc1ccc2cc3[n+](cc2c1OC)CCc1cc2c(cc1-3)OCO2` [berberine, Berberine, reference compound], the “concentration … (comparable level)” value ([14]; BEAS-2B mt-Keima, FIG. 5) was 80 µM.

For `CC(=O)O[C@H]1C(=O)[C@@]2(C)[C@H]([C@H](OC(=O)c3ccccc3)[C@]3(O)C[C@H](OC(=O)[C@H](O)[C@@H](NC(=O)c4ccccc4)c4ccccc4)C(C)=C1C3(C)C)[C@]1(OC(C)=O)CO[C@@H]1C[C@@H]2O` [paclitaxel, reference compound], the “increase in number of dendritic branches” value [5, 19] was 33%, the “increase in total dendrite length” value [5, 19] was 22% and the “reduction in withdrawal latency” value ([6]; paclitaxel 20 μM 48 hours alone, from 6.9 seconds to 4.5 seconds) was 35%. For the same compound, the withdrawal latency ([6]; paclitaxel 20 μM 48 hours alone, untreated 6.9 seconds) was 4.5 s, the pain sensitivity ([10]; paclitaxel alone) was “increased” and the “reduction in larval size compared to the untreated control group” value ([13]; Drosophila larvae, FIG. 8B) was roughly 28%. The “number of peripheral nerves (intraepidermal nerve fibers: IENFs) in the footpad” value ([16]; mice, paclitaxel alone) was “reduced”.

In the case of `COc1cc2c(cc1OC)-c1cc3ccc(OC)c(OC)c3c[n+]1CC2` [palmatine, Palmatine, reference compound], the “concentration … (comparable level)” value ([14]; BEAS-2B mt-Keima, FIG. 5) was 400 µM.
